Laboratory results taken from patent publication US20080287396A1, “Phosphonated Fluoroquinolones, Antibacterial Analogs Thereof, and Methods for the Prevention and Treatment of Bone and Joint Infections” (TARGANTA THERAPEUTICA INC., priority 2005, published 2008).

Experiments:
[1] = Bone powder binding, LC/MS detection; settings: 100 μM compound, Tris-HCl pH 7, 0.15M NaCl, ground rat tibia bone, 10 min
Protocol: The ability of the example molecules to bind to bone powder was established in two parallel fashions, using either LC/MS or fluorometric detection. For LC/MS detection, a stock solution (5 mM) of the compound to be tested was added to 0.1M Tris-HCl buffer pH 7, 0.15M NaCl to reach a final concentration of 100 μM. Triplicate samples (1 mL) of the compound solutions were intensively shaken for 10 min with or without 25 mg of fresh or 20 mg of vacuum dried ground rat tibia bone. The samples were then centrifuged for 15 min at 10 000 g. The presence of unbound compound was measured by injection of 30 μL of each of the supernatants into an Agilent 1100™ LC/UV system. For fluorometric detection, an individual compound was dissolved in PBS or water (compound 52) and resuspended at a concentration of 1 mg/ml in a slurry of bone meal powder (Now Foods, Bloomingdale, Ill., USA) in PBS at 10 mg/ml. The suspension of drug/prodrug in bone meal powder was incubated at 37° C. for 1 h to allow for binding, and centrifuged at 13 000 rpm for 2 min, before recovering the supernatant. The bone meal powder pellet was then washed three times with 1 ml of PBS. All supernatants were saved and assessed for fluoroquinolone content by fluorescence measurements at excitation/emission wavelengths of 280/465 nm. The amount of fluoroquinolone was determined from standard curves generated for each experiment. Amount of drug/prodrug bound to bone powder was deduced from the difference between the input amount (typically 1 mg) and the amount recovered in the supernatants after binding. In all binding experiments, >99% of input drug was recovered in the supernatant for the parent drugs.

[2] = Regenerated moxifloxacin in infected and uninfected rat tibiae; assay type: in vivo; settings: 52 IV 15.8 or 31.6 mg/kg one day after surgery; tibiae one and six days after treatment
Protocol: Rats were infected as in Example 7, and treated IV with either 15.8 or 31.6 mg/kg of body weight of prodrug 52 one day after surgery. One day and six days following the treatment, the tibiae were collected as described previously. The levels of regenerated moxifloxacin 3 were determined as follows.
The experimentally obtained whole tibia was ground to a powder which was suspended in 5% formic acid in methanol (500 mg/1.6 ml) to extract the released moxifloxacin 3. The mixture was vortexed for 10 minutes and centrifuged for 20 minutes at 1250 g.
Standards (from 5 to 1000 ng), QCs (25 and 250 ng) and blanks were prepared (in duplicate) as follows: to blank tibia powder (50 mg, not dried) was added the 5% formic acid solution in methanol (160 μl) and the spiking solution of moxifloxacin 3 in water (10 μl). The mixtures were vortexed for 10 minutes and centrifuged for 10 minutes at 2500 g. The supernatant was transferred into another vial, spiked with the internal standard, vortexed and evaporated to dryness. In each case, the resulting dried residues (samples, standards, QCs and blanks) were reconstituted in 200 μl of water, vortexed for 15 min and centrifuged for 15 min at 10 000 g. The solution (20 μl) was injected into the LC/MS. The LC/MS method is as described in Example 6.

S. aureus ATCC 13709 = test: Combination with Rifampicin in treatment of osteomyelitis induced in rats; assay type: in vivo, rat; settings: 34 mg/kg 54 IV + 20 mg/kg Rifampicin s.c. on days 14, 15, 16, 17 after surgery; titer on day 43
Protocol: The cells were washed twice with phosphate-buffered saline (PBS) and resuspended in BHIB supplemented with 10% (vol./vol.) fetal bovine serum at a density of approximately 10^10 colony forming units (CFU)/ml (based upon turbidimetry). The suspension was aliquoted and a portion was used to check the CFU count. The culture was stored frozen (−80° C.) and was used without subculture. For use as an inoculum the culture was thawed, diluted in PBS and kept in an ice bath until it was used.
Animals were infected as described by O'Reilly et al. (Antimicrobial Agents and Chemotherapy (1992), 36(12): 2693-97) to generate the bone infection. Female CD rats (age, 57 to 70 days; n=5/group; Charles River, St-Constant, Canada) were anaesthetized by isofluorane before and during the surgery. Following complete induction of anesthesia, the rat was placed ventral side up and hair was shaved from the surgical site. The skin over the leg was cleaned and disinfected (proviodine-ethanol 70%). A longitudinal incision below the knee joint was made in the sagital plane. The incision was made over the bone below the “knee joint” (tibia head or condyle) but not completely extending to the ankle. A high speed drill fitted with a 2 mm bulb bit was used to drill a hole into the medullar cavity of the tibia. […]

Hela cells = test: Cytotoxicity assay (MTS reduction); assay type: cell-based; settings: concentrations up to 100 μM, 18 h, MTS reagent; data not shown
In short: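 HeLa cells (2×10^4 per well) exposed to compound at 100, 50, 25 and 12.5 μM in DMEM with 1% bovine growth serum, 18 h at 37° C., 5% CO2. Growth inhibition read by MTS tetrazolium reduction.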

SMILES	Binding to bone (%) LC/MS [1]	level of regenerated moxifloxacin 3, uninfected versus infected tibiae [2]	bacterial titer in the infected tibiae, combination with Rifampicin (S. aureus ATCC 13709)	cytotoxicity (Hela cells)
COc1c(N2C[C@@H]3CCCN[C@@H]3C2)c(F)cc2c(=O)c(C(=O)OCC(=O)NC(P(=O)(O)O)P(=O)(O)O)cn(C3CC3)c12 [Compound 52, (1,1-Bisphosphonomethylcarbamoyl)methyl 1-cyclopropyl-6-fluoro-1,4-dihydro-7-((4aS,7aS)-octahydropyrrolo[3,4-b]pyridin-6-yl)-8-methoxy-4-oxoquinoline-3-carboxylate]	94.2 ± 3.2%	not significantly different		
COc1c(N2CCNC(C)C2)c(F)cc2c(=O)c(C(=O)OCC(=O)NC(P(=O)(O)O)P(=O)(O)O)cn(C3CC3)c12 (stereo not shown) [Compound 54, (1,1-Bisphosphonomethylcarbamoyl)methyl 7-(3-methylpiperazin-1-yl)-1-cyclopropyl-6-fluoro-1,4-dihydro-8-methoxy-4-oxoquinoline-3-carboxylate]			statistically significant decrease (p=0.007)	no signs of any cytotoxicity
